Laboratory results: patent US20210380606A1, “5-AZAINDAZOLE DERIVATIVES AS ADENOSINE RECEPTOR ANTAGONISTS” (Merck Patent GmbH, priority 2018, published 2021)
pIC50: −log10 of the molar value.

Legend:
human A2A receptors = target: T1, human A2A receptors (Homo sapiens, UniProt P29274); test: Functional human A2A receptor activity, recombinant HEK293 cells, cAMP (HTRF); format: cell-based; details: read-out: A2A (Category)
T1 construct: expressed in transfected cells; host or cells: HEK293
Protocol: (§1) The functional activities of human A2A and A2B receptors were determined by quantification of cAMP, being the second messenger for adenosine receptors.
(§2) After a 15 min incubation, HTRF reagents (cAMP dynamic 2, Cis Bio) were added and the cellular cAMP levels were determined using the ENVISION (Perkin Elmer) plate reader.

human A2B receptors = target: T2, human A2B receptors (Homo sapiens, UniProt P29275); test: Functional human A2B receptor activity, recombinant HEK293 cells, cAMP (HTRF); format: cell-based; details: read-out: A2B (Category)
T2 construct: expressed in transfected cells; host or cells: HEK293
T2 sequence (P29275 1-332): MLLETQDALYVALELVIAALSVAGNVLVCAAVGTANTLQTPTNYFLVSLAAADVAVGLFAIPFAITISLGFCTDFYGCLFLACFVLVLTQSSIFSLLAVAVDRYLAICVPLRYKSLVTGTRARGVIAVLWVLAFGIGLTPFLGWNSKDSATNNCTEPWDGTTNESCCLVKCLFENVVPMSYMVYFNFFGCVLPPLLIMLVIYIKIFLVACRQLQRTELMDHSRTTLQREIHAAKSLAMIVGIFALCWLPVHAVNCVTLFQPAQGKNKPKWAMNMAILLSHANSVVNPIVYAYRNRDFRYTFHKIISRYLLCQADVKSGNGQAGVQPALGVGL
Protocol: as §1, §2

T1 sequence (P29274 whole entry): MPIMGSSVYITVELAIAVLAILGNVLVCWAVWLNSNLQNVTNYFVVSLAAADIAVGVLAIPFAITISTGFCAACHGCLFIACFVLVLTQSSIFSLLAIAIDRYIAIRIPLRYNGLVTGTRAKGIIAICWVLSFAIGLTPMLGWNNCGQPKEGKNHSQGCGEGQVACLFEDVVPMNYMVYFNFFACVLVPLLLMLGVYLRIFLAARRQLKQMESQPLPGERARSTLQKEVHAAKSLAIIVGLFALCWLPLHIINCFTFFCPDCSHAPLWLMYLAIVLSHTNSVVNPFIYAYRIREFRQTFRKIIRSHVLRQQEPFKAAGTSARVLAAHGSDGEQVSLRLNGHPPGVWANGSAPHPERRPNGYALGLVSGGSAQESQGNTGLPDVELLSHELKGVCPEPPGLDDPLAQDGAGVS

Row | Structure (SMILES) | pIC50 (human A2A receptors) | pIC50 (human A2B receptors)
1 | O=C(c1cc2c(cn1)c(-c1cnc3ccc(F)cn13)nn2CC(F)(F)F)N1[C@@H]2CC[C@H]1C[C@@H](O)C2 [Compound 86, [3-(6-fluoroimidazo[1,2-a]pyridin-3-yl)-1-(2,2,2-trifluoroethyl)pyrazolo[4,3-c]pyridin-6-yl]-(3-endo-hydroxy-8-azabicyclo[3.2.1]octan-8-yl)methanone] | > 7.00 | > 7.00
2 | O=C(c1cc2c(cn1)c(-c1cnc3ccccn13)nn2CC(F)(F)F)N1[C@@H]2CC[C@H]1C[C@@H](O)C2 [Compound 87, [3-(imidazo[1,2-a]pyridin-3-yl)-1-(2,2,2-trifluoroethyl)pyrazolo[4,3-c]pyridin-6-yl]-(3-endo-hydroxy-8-azabicyclo[3.2.1]octan-8-yl)methanone] | > 7.00 | > 6.00
3 | O=C(c1cc2c(cn1)c(-c1cnc3ccc(O)cn13)nn2CC(F)(F)F)N1[C@@H]2CC[C@H]1C[C@@H](O)C2 [Compound 88, (3-endo-hydroxy-8-azabicyclo[3.2.1]octan-8-yl)-[3-(6-hydroxyimidazo[1,2-a]pyridin-3-yl)-1-(2,2,2-trifluoroethyl)pyrazolo[4,3-c]pyridin-6-yl]methanone] | > 7.00 | > 6.00
4 | O=C(c1cc2c(cn1)c(-c1cnn3ccccc13)nn2CC(F)(F)F)N1CCCCCC1 [Compound 89, Azepan-1-yl-[3-pyrazolo[1,5-a]pyridin-3-yl-1-(2,2,2-trifluoro-ethyl)-1H-pyrazolo[4,3-c]pyridin-6-yl]-methanone hydrochoride] | > 7.00 | > 7.00
5 | O=C(c1cc2c(cn1)c(-c1coc3ccccc13)nn2CC(F)(F)F)N1CCCCCC1 [Compound 90, Azepan-1-yl-[3-benzofuran-3-yl-1-(2,2,2-trifluoro-ethyl)-1H-pyrazolo[4,3-c]pyridin-6-yl]-methanone] | > 7.00 | > 7.00
6 | O=C(c1cc2c(cn1)c(-c1c[nH]c3ccccc13)nn2CC(F)(F)F)N1CCCCCC1 [Compound 91, Azepan-1-yl-[3-(1H-indol-3-yl)-1-(2,2,2-trifluoro-ethyl)-1H-pyrazolo[4,3-c]pyridin-6-yl]-methanone] | > 7.00 | > 7.00
7 | O=C(c1cc2c(cn1)c(-c1c[nH]c3ncccc13)nn2CC(F)(F)F)N1CCCCCC1 [Compound 92, Azepan-1-yl-[3-(1H-pyrrolo[2,3-b]pyridin-3-yl)-1-(2,2,2-trifluoro-ethyl)-1H-pyrazolo[4,3-c]pyridin-6-yl]-methanone] | > 7.00 | > 6.00
8 | O=C(c1cc2c(cn1)c(-c1coc3ccccc13)nn2CC(F)(F)F)N1CCCOCC1 [Compound 94, [3-Benzofuran-3-yl-1-(2,2,2-trifluoro-ethyl)-1H-pyrazolo[4,3-c]pyridine-6-yl]-1,4-oxazepan-4-yl-methanone] | > 7.00 | > 7.00
9 | O=C(c1cc2c(cn1)c(-c1cnn3ccccc13)nn2CC(F)(F)F)N1CCCOCC1 [Compound 95, 1,4-Oxazepan-4-yl-[3-pyrazolo[1,5-a]pyridine-3-yl-1-(2,2,2-trifluoro-ethyl)-1H-pyrazolo[4,3-c]pyridine-6-yl]-methanone] | > 7.00 | > 6.00
10 | O=C(c1cc2c(cn1)c(-c1c[nH]c3ccccc13)nn2CC(F)(F)F)N1CCCOCC1 [Compound 96, [3-(1H-Indol-3-yl)-1-(2,2,2-trifluoro-ethyl)-1H-pyrazolo[4,3-c]pyridine-6-yl]-1,4-oxazepan-4-yl-methanone] | > 7.00 | > 6.00
11 | O=C(c1cc2c(cn1)c(-c1cnn3ccccc13)nn2CC(F)(F)F)N1CC2CCC(C1)O2 [Compound 99, (8-Oxa-3-aza-bicyclo[3.2.1]oct-3-yl)-[3-pyrazolo[1,5-a]pyridin-3-yl-1-(2,2,2-trifluoro-ethyl)-1H-pyrazolo[4,3-c]pyridin-6-yl]-methanone] | > 7.00 | > 6.00
12 | O=C(c1cc2c(cn1)c(-c1coc3ccccc13)nn2CC(F)(F)F)N1CC2CCC(C1)O2 [Compound 100, [3-Benzofuran-3-yl-1-(2,2,2-trifluoro-ethyl)-1H-pyrazolo[4,3-c]pyridin-6-yl]-(8-oxa-3-aza-bicyclo[3.2.1]oct-3-yl)-methanone] | > 7.00 | > 7.00
13 | O=C(c1cc2c(cn1)c(-c1coc3ccccc13)nn2CC(F)(F)F)N1CC2CCC(C2)C1 [Compound 101, (3-Aza-bicyclo[3.2.1]oct-3-yl)-[3-benzofuran-3-yl-1-(2,2,2-trifluoro-ethyl)-1H-pyrazolo[4,3-c]pyridin-6-yl]-methanone] | > 7.00 | > 7.00
14 | O=C(c1cc2c(cn1)c(-c1cnn3ccccc13)nn2CC(F)(F)F)N1CC2CCC(C2)C1 [Compound 102, (3-Aza-bicyclo[3.2.1]oct-3-yl)-[3-pyrazolo[1,5-a]pyridin-3-yl-1-(2,2,2-trifluoro-ethyl)-1H-pyrazolo[4,3-c]pyridin-6-yl]-methanone] | > 7.00 | > 7.00
15 | O=C(c1cc2c(cn1)c(-c1coc3ccccc13)nn2CC(F)F)N1CCCOCC1 [Compound 103, [3-Benzofuran-3-yl-1-(2,2-difluoro-ethyl)-1H-pyrazolo[4,3-c]pyridin-6-yl]-1,4-oxazepan-4-yl-methanone] | > 7.00 | > 6.00
16 | O=C(c1cc2c(cn1)c(-c1coc3ccccc13)nn2CCF)N1CCCOCC1 [Compound 104, [3-Benzofuran-3-yl-1-(2-fluoro-ethyl)-1H-pyrazolo[4,3-c]pyridin-6-yl]-1,4-oxazepan-4-yl-methanone] | > 7.00 | > 6.00
17 | NC(=O)Cn1nc(-c2coc3ccccc23)c2cnc(C(=O)N3CCCOCC3)cc21 [Compound 105, 2-[3-Benzofuran-3-yl-6-(1,4-oxazepane-4-carbonyl)-pyrazolo[4,3-c]pyridin-1-yl]-acetamide] | > 7.00 | > 6.00
18 | CCCn1nc(-c2coc3ccccc23)c2cnc(C(=O)N3CCCOCC3)cc21 [Compound 106, (3-Benzofuran-3-yl-1-propyl-1H-pyrazolo[4,3-c]pyridin-6-yl)-1,4-oxazepan-4-yl-methanone] | > 7.00 | > 6.00
19 | CS(=O)(=O)Cn1nc(-c2coc3ccccc23)c2cnc(C(=O)N3CC4CCC(C3)O4)cc21 [Compound 107, (3-Benzofuran-3-yl-1-methanesulfonylmethyl-1H-pyrazolo[4,3-c]pyridine-6-yl)-(8-oxa-3-aza-bicyclo[3.2.1]oct-3-yl)-methanone] | > 7.00 | > 7.00
20 | CS(=O)(=O)Cn1nc(-c2cnn3ccccc23)c2cnc(C(=O)N3CC4CCC(C3)O4)cc21 [Compound 108, (1-Methanesulfonylmethyl-3-pyrazolo[1,5-a]pyridine-3-yl-1H-pyrazolo[4,3-c]pyridine-6-yl)-(8-oxa-3-aza-bicyclo[3.2.1]oct-3-yl)-methanone] | > 7.00 | > 6.00
21 | CS(=O)(=O)Cn1nc(-c2coc3ccc(F)cc23)c2cnc(C(=O)N3CCCOCC3)cc21 [Compound 110, [3-(5-fluorobenzofuran-3-yl)-1-(methylsulfonylmethyl)pyrazolo[4,3-c]pyridin-6-yl]-(1,4-oxazepan-4-yl)methanone] | > 7.00 | > 7.00
22 | CS(=O)(=O)Cn1nc(-c2coc3ccc(F)cc23)c2cnc(C(=O)N3CC4CCC(C3)O4)cc21 [Compound 111, [3-(5-fluorobenzofuran-3-yl)-1-(methylsulfonylmethyl)pyrazolo[4,3-c]-pyridin-6-yl]-(8-oxa-3-azabicyclo[3.2.1]octan-3-yl)methanone] | > 7.00 | > 7.00
23 | O=C(c1cc2c(cn1)c(-c1c[nH]c3ccccc13)nn2CC(F)(F)F)N1[C@@H]2CC[C@H]1C[C@@H](O)C2 [Compound 112, (3-endo-hydroxy-8-azabicyclo[3.2.1]octan-8-yl)-[3-(1H-indol-3-yl)-1-(2,2,2-trifluoroethyl)pyrazolo[4,3-c]pyridin-6-yl]methanone] | > 7.00 | > 7.00
24 | O=C(c1cc2c(cn1)c(-c1cnn3ccccc13)nn2CC(F)(F)F)N1[C@@H]2CC[C@H]1C[C@@H](O)C2 [Compound 113, (3-endo-hydroxy-8-azabicyclo[3.2.1]octan-8-yl)-[3-pyrazolo[1,5-a]pyridin-3-yl-1-(2,2,2-trifluoroethyl)pyrazolo[4,3-c]pyridin-6-yl]methanone] | > 7.00 | > 7.00
25 | O=C(c1cc2c(cn1)c(-c1cnn3ccccc13)nn2CC(F)(F)F)N1CCC(O)CC1 [Compound 114, (4-hydroxy-1-piperidyl)-[3-pyrazolo[1,5-a]pyridin-3-yl-1-(2,2,2-trifluoroethyl)pyrazolo[4,3-c]pyridin-6-yl]methanone] | > 7.00 | > 7.00
26 | O=C(c1cc2c(cn1)c(-c1coc3ccc(F)cc13)nn2CC(F)(F)F)N1CCC(O)CC1 [Compound 115, [3-(5-fluorobenzofuran-3-yl)-1-(2,2,2-trifluoroethyl)pyrazolo[4,3-c]pyridin-6-yl]-(4-hydroxy-1-piperidyl)methanone] | > 7.00 | > 7.00
27 | CC1(O)CCN(C(=O)c2cc3c(cn2)c(-c2coc4ccc(F)cc24)nn3CC(F)(F)F)CC1 [Compound 116, [3-(5-fluorobenzofuran-3-yl)-1-(2,2,2-trifluoroethyl)pyrazolo[4,3-c]pyridin-6-yl]-(4-hydroxy-4-methyl-1-piperidyl)methanone] | > 7.00 | > 7.00
